The values that follow come from patent publication US20260285853A1, “COMPOUNDS AND METHODS FOR MODULATING SPLICING” (REMIX THERAPEUTICS INC., priority 2023, published 2026).

For orientation: IC50 means the concentration that gives 50% inhibition. By AC50 is commonly meant the concentration giving half of the maximal activity seen. One may read the GI50 as the concentration at which growth is held to half of that of the control.

Molecules are shown by their SMILES.

Assay type in all cases: cell-based
The test system of one test is SMN2 mRNA. Nature of the test: Gene panel canonical junction qPCR assay, decrease in CJ mRNA, Table 3. The following applies: decrease in canonical junction (CJ) mRNA, gene panel qPCR, Table 3. The procedure, abridged:
(§1)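 IC50 is the concentration giving 50% response in decrease of the canonical junction transcript, fitted with a 4-parameter logistic equation. Transcripts were quantified by RT-qPCR in A673 or K562 cells after 24 h exposure to compounds dosed up to 10 uM in 3-fold steps.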
(In general: Real-time PCR tracks product formation cycle by cycle.)

Test [1] concerns MYB mRNA. The description is as above. The following applies: decrease in canonical junction (CJ) mRNA, gene panel qPCR, Table 3. The procedure, abridged: as §1
The subject of test [2] is HTT mRNA. The description is as above. The conditions noted are these: decrease in canonical junction (CJ) mRNA, gene panel qPCR, Table 3. In short, it runs like this: as §1
Test [3] relates to MYB mRNA. The test can be described thus: Splicing RT-qPCR assay (THP), Table 2A. The following applies: Table 2A (THP); for AC50: AJ mRNA increase, read-out: MYB AJ (increase in alternative junction mRNA, AC50); for IC50: CJ mRNA decrease, read-out: MYB CJ (decrease in canonical junction mRNA, IC50).
Test [4] deals with HTT mRNA. The test can be described thus: Splicing RT-qPCR assay (THP), Table 2A. The conditions noted are these: Table 2A (THP); for AC50: AJ mRNA increase, read-out: HTT AJ (increase in alternative junction mRNA, AC50); for IC50: CJ mRNA decrease, read-out: HTT CJ (decrease in canonical junction mRNA, IC50).
Test [5] has as its system SH-SY5Y (human neuroblastoma) cells. Nature of the test: Cell viability, Cell Titer Glo 2.0 assay. The conditions noted are these: read-out: Viability SHSY5Y.3 GI50. In short, it runs like this: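 Steps: serial DMSO dilution of compound, 1:100 dilution into medium, addition to cells (0.1% DMSO final). Incubate 72 h at 37 °C, 5% CO2. Assay with CellTiter-Glo 2.0 reagent.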

`CCNC1CCN(c2ccc(C(=O)Nc3cc(OC)c4nc(C)cn4c3)c3nn(C)cc23)CC1` [Compound 175, 4-(4-(ethylamino)piperidin-1-yl)-N-(8-methoxy-2-methyl-imidazo-[1,2-a]pyridin-6-yl)-2-methyl-2H-indazole-7-carboxamide]: the 50% inhibitory concentration (IC50) was under 100 nM with SMN2 mRNA; 100 to 1000 nM with MYB mRNA [1]; 100 to 1000 nM in the test with HTT mRNA [2]; under 100 nM in the test on MYB mRNA [3]; 1000 to 10000 nM with HTT mRNA [4]. For the same compound, the AC50 was under 100 nM with MYB mRNA [3] and 1000 to 10000 nM in the test with HTT mRNA [4]. The 50% growth inhibitory concentration (GI50) in test [5] fell in the range of 1000 to 10000 nM.
For the compound `CCNC1CCN(c2ccc(C(=O)Nc3ccc4nc(C)cn4c3)c3nn(C)cc23)CC1` [Compound 176, 4-[4-(ethylamino)-1-piperidyl]-2-methyl-N-(2-methylimidazo[1,2-a]pyridin-6-yl)-indazole-7-carboxamide], the concentration for half-maximal inhibition (IC50) with SMN2 mRNA was under 100 nM; in the test with MYB mRNA [1], 100 to 1000 nM; in the test with HTT mRNA [2], 1000 to 10000 nM; with MYB mRNA [3], 100 to 1000 nM; in the test with HTT mRNA [4] it was over 10000 nM. Moreover, the AC50 in the test with MYB mRNA [3] lay within 100 to 1000 nM; in the test on HTT mRNA [4], 1000 to 10000 nM. Besides, the concentration for 50% growth inhibition (GI50) in test [5] was in the range of 100 to 1000 nM.
Turning to `CCNC1CCN(c2ccc(C(=O)Nc3cc(F)c4nc(C(C)C)cn4c3)c3nn(C)cc23)CC1` [Compound 177, 4-[4-(ethylamino)-1-piperidyl]-N-(8-fluoro-2-isopropyl-imidazo[1,2-a]pyridin-6-yl)-2-methyl-indazole-7-carboxamide], the IC50 is over 10000 nM in the test with SMN2 mRNA; over 10000 nM with MYB mRNA [1]; 1000 to 10000 nM with HTT mRNA [2]; 1000 to 10000 nM in the test with MYB mRNA [3]; over 10000 nM with HTT mRNA [4]. For the same compound, the AC50 in the test on MYB mRNA [3] and in the test on HTT mRNA [4] was over 10000 nM in each case. Also, the GI50 in test [5] lay within 100 to 1000 nM.
Regarding `CCNC1CCN(c2ccc(C(=O)Nc3cc4cn(C)nc4cc3OC)c3[nH]ccc23)CC1` [Compound 178, 4-[4-(ethylamino)-1-piperidyl]-N-(6-methoxy-2-methyl-indazol-5-yl)-1H-indole-7-carboxamide], the IC50 is 1000 to 10000 nM in the test with SMN2 mRNA; over 10000 nM with MYB mRNA [1]; over 10000 nM in the test on HTT mRNA [2]; over 10000 nM with MYB mRNA [3]; over 10000 nM in the test with HTT mRNA [4]. Also, the AC50 in the test on MYB mRNA [3] and with HTT mRNA [4] was over 10000 nM throughout. Also, the GI50 in test [5] was 1000 to 10000 nM.
Regarding `CNC1(C)CCN(c2cc(F)c(C(=O)Nc3cc(F)c4nc(C)cn4c3)c3nn(C)cc23)CC1` [Compound 179, 6-fluoro-N-(8-fluoro-2-methyl-imidazo[1,2-a]pyridin-6-yl)-2-methyl-4-[4-methyl-4-(methylamino)-1-piperidyl]indazole-7-carboxamide], the half-maximal inhibitory concentration (IC50) in the test on SMN2 mRNA, with MYB mRNA [1], with HTT mRNA [2], in the test with MYB mRNA [3] and in the test on HTT mRNA [4] was under 100 nM each time. For the same compound, the AC50 with MYB mRNA [3] and in the test on HTT mRNA [4] was under 100 nM each time. Besides, the concentration for 50% growth inhibition (GI50) in test [5] is under 100 nM.
Regarding `CNC1(C)CCN(c2cc(F)c(C(=O)Nc3cn4cc(C)nc4c(F)c3OC)c3nn(C)cc23)CC1` [Compound 180, 6-fluoro-N-(8-fluoro-7-methoxy-2-methyl-imidazo[1,2-a]pyridin-6-yl)-2-methyl-4-[4-methyl-4-(methylamino)-1-piperidyl]indazole-7-carboxamide], the half-inhibitory concentration (IC50) with SMN2 mRNA, in the test with MYB mRNA [1], in the test on HTT mRNA [2], in the test on MYB mRNA [3] and in the test with HTT mRNA [4] was under 100 nM throughout. Further, the concentration at half-maximal activity (AC50) in the test on MYB mRNA [3] and in the test with HTT mRNA [4] was under 100 nM in each case. Besides, the concentration for 50% growth inhibition (GI50) in test [5] was under 100 nM.
On to `CCNC1CCN(c2ccc(C(=O)Nc3cn4cc(C)nc(C)c4n3)c3nn(C)cc23)CC1` [Compound 181, N-(6,8-dimethylimidazo [1,2-a]pyrazin-2-yl)-4-[4-(ethylamino)-1-piperidyl]-2-methyl-indazole-7-carboxamide], for which the IC50 is under 100 nM in the test on SMN2 mRNA; 100 to 1000 nM with MYB mRNA [1]; 100 to 1000 nM in the test on HTT mRNA [2]; 100 to 1000 nM in the test with MYB mRNA [3]; 1000 to 10000 nM in the test with HTT mRNA [4]. In addition, the AC50 lay in the range of 100 to 1000 nM in the test on MYB mRNA [3] and 1000 to 10000 nM with HTT mRNA [4]. The 50% growth inhibitory concentration (GI50) in test [5] lay in the range of 100 to 1000 nM.
As to `CCNC1CCN(c2ccc(C(=O)Nc3cc(F)c4nn(C)cc4c3)c3nn(C)cc23)CC1` [Compound 182, 4-(4-(ethylamino)piperidin-1-yl)-N-(7-fluoro-2-methyl-2H-indazol-5-yl)-2-methyl-2H-indazole-7-carboxamide], the concentration for half-maximal inhibition (IC50) is under 100 nM in the test on SMN2 mRNA; under 100 nM in the test on MYB mRNA [1]; 1000 to 10000 nM with HTT mRNA [2]; under 100 nM with MYB mRNA [3]; 1000 to 10000 nM in the test on HTT mRNA [4]. The half-maximal activity concentration (AC50) in the test on MYB mRNA [3] is under 100 nM; in the test on HTT mRNA [4] it was 1000 to 10000 nM. In addition, in test [5], the GI50 lay within 100 to 1000 nM.
Take `Cc1cn2cc(NC(=O)c3ccc(N4CCC(NC5CC5)CC4)c4cc(C)oc34)cc(F)c2n1` [Compound 185, 4-[4-(cyclopropyl-amino)-1-piperidyl]-N-(8-fluoro-2-methyl-imidazo[1,2-a]pyridin-6-yl)-2-methyl-benzofuran-7-carboxamide]: the IC50 with SMN2 mRNA is under 100 nM; with MYB mRNA [1] it was 100 to 1000 nM; in the test with HTT mRNA [2], 1000 to 10000 nM; with MYB mRNA [3], 100 to 1000 nM; in the test with HTT mRNA [4], 1000 to 10000 nM. Moreover, the half-maximal activity concentration (AC50) with MYB mRNA [3] is under 100 nM; with HTT mRNA [4] it was 1000 to 10000 nM. Moreover, the concentration for 50% growth inhibition (GI50) in test [5] was 100 to 1000 nM.
As for `CCNC1CCN(c2ccc(C(=O)Nc3cc(C)c4nc(C)cn4n3)c3nn(C)cc23)CC1` [Compound 186, N-(2,8-dimethylimidazo [1,2-b]pyridazin-6-yl)-4-[4-(ethylamino)-1-piperidyl]-2-methyl-indazole-7-carboxamide], the half-maximal inhibitory concentration (IC50) in the test on SMN2 mRNA, with MYB mRNA [1], with HTT mRNA [2], in the test on MYB mRNA [3] and with HTT mRNA [4] was 100 to 1000 nM throughout. Further, the half-maximal activity concentration (AC50) in the test with MYB mRNA [3] and in the test with HTT mRNA [4] was 100 to 1000 nM throughout. For the same compound, the concentration for 50% growth inhibition (GI50) in test [5] was 100 to 1000 nM.
`Cc1cn2nc(NC(=O)c3ccc(N4CCC(NC5CC5)CC4)c4cn(C)nc34)cc(C)c2n1` [Compound 187, 4-[4-(cyclopropylamino)-1-piperidyl]-N-(2,8-dimethylimidazo-[1,2-b]pyridazin-6-yl)-2-methyl-indazole-7-carboxamide]: the 50% inhibitory concentration (IC50) with SMN2 mRNA, in the test with MYB mRNA [1], with HTT mRNA [2], in the test with MYB mRNA [3] and in the test with HTT mRNA [4] was 100 to 1000 nM throughout. In addition, the concentration at half-maximal activity (AC50) with MYB mRNA [3] and in the test on HTT mRNA [4] was 100 to 1000 nM each time. In test [5], the GI50 was in the range of 100 to 1000 nM.
`CCNC1CCN(c2ccc(C(=O)Nc3cc(F)c4nc(C)c(C)n4c3)c3nn(C)cc23)CC1` [Compound 188, 4-[4-(ethylamino)-1-piperidyl]-N-(8-fluoro-2,3-dimethyl-imidazo[1,2-a]pyridin-6-yl)-2-methyl-indazole-7-carboxamide]: the 50% inhibitory concentration (IC50) in the test on SMN2 mRNA, in the test on MYB mRNA [1], with HTT mRNA [2], in the test on MYB mRNA [3] and in the test with HTT mRNA [4] was over 10000 nM each time. The AC50 in the test on MYB mRNA [3] and in the test on HTT mRNA [4] was over 10000 nM each time. Moreover, the GI50 in test [5] lay within 1000 to 10000 nM.
